Assay [1] has as its system Primary human umbilical vein endothelial cells (HUVECs). Kind of assay: HUVEC cell proliferation (Celltiter 96 AQueous One Solution assay). In kind it is cell-based. The following applies: 100 μM danazol, all time points. On the procedure: Primary human umbilical vein endothelial cells (HUVECs) and EGM-2 growth medium were obtained from Cambrex (Walkersville, Md.). The cells were passaged in medium supplemented with 2% fetal calf serum (FCS) in tissue culture flasks at 37° C. and 5% CO2. Subculturing was performed using trypsin when 60-80% confluence was obtained as specified by the supplier.
Cryopreserved ampoules of passage 2 HUVECs were thawed and plated in 96 well tissue culture plates at 5,000 cells/cm^2. […]. In short, medium was aspirated from each well and the cells were washed with 200 μl Hepes buffered saline (HBSS) from Cambrex warmed to 37° C. 100 μl diluted celltiter solution (15 μl stock+85 μl EGM-2 containing 0.1% FCS) were added to each well and incubated for an additional 4 hours. Optical density was determined by microplate reader using a 530 nm filter after blank subtraction and data presented as OD±standard deviation. The final concentration of ethanol in the wells was less then 0.2% and had no effect on cell proliferation or viability.
All data are presented as representative experiments done in triplicate. Differences between subsets were analyzed using student t-test in Microsoft Excel. P<0.05 was considered statistically significant.
[…]. The celltiter assay is based on the reduction of the assay solution by dehydrogenase enzymes to a formazan dye that directly correlates to cell number.

Assay [2] has as its system HUVECs. Kind of assay: HUVEC scratch migration assay. The settings on record: 50 μM, 75 μM and 100 μM. In kind it is cell-based, human. On the procedure:
Passage 8 HUVECs, lot number 8750 (obtained from Lonza), were plated in 6-well plates (ICS BioExpress) in endothelial growth medium-2 (EGM-2) complete medium (obtained from Lonza). […] The monolayers were then “scratched” with a 1000 μl pipet tip and washed two times with warm EGM-2 medium. […] The wells were photographed again. The gaps were measured in each photograph using Adobe Photoshop software, and gap measurements are presented as the number of pixels in the gap.

In assay [3] the test system is human retinal endothelial cells. The assay is described as follows: Transendothelial electrical resistance (TER), Example 4, retinal cells. Format: cell-based. The settings on record: 1 μM, retinal endothelial cell monolayers. On the procedure:
[…]. Assays were also performed in the same manner using passage 8 human brain endothelial cells and passage 8 human umbilical vein endothelial cells.
An initial TER measurement was taken for each insert using EVOM^2 voltohmmeter connected to an STX100 electrode (both from World Precision Instruments). Measurements were also taken at 24, 48, 72 and 144 hours. All data are presented as TER measurements/cm^2 of insert with TER of blank inserts subtracted.

Assay [4] has the same test system. Kind of assay: TER of retinal endothelial cell monolayers with steroid receptor antagonists, Example 6.

From US8227457B2, “Method for treatment of diseases” (DMI Acquisition Corp., priority 2009, dated 2012) come the findings set out here.

Molecules are shown by their SMILES.

Regarding `C#C[C@]1(O)CC[C@H]2[C@@H]3CCC4=Cc5oncc5C[C@]4(C)[C@H]3CC[C@@]21C` [Danazol, 17α-pregna-2,4-dien-20-yno[2,3-d]isoxazol-17β-ol], the “effect on cell proliferation” value in assay [1] is “complete arrest of cell proliferation”. Moreover, the “effect on HUVEC migration” value in assay [2] is “significantly inhibit HUVEC migration”. Also, in assay [3], the “effect on TER” value is recorded as “enhanced TER measurements”. The “effect on the TER reduction caused by hydroxyflutamide” value in assay [4] (0.1 μM hydroxyflutamide followed by 0.1 μM danazol) is “prevented the reduction caused by hydroxyflutamide”. For the same compound, the “effect on TER compared to the control” value in assay [4] (0.1 μM, Example 6) is reported as “increased the TER measurements”.
